For series [1] the following is noted: % Viability non-Wnt responsive cells.
Series [2] concerns the target Wnt-responsive promoter (TCF/LEF). As to the kind of experiment: Wnt-dependent luciferase reporter assay. Type of series: cell-based, murine. The procedure, abridged:
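Murine 3T3 fibroblasts carrying a TCF/LEF-driven luciferase reporter, stimulated with Wnt3a in the presence of increasing peptide concentrations or vehicle. Luminescence inhibition gave EC50 values in uM.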
On the technique in general: In a reporter assay the amount or activity of a reporter protein is the signal.

Series [3] concerns the target T1, β-catenin (Homo sapiens, UniProt P35222).
T1 sequence (P35222 1-781): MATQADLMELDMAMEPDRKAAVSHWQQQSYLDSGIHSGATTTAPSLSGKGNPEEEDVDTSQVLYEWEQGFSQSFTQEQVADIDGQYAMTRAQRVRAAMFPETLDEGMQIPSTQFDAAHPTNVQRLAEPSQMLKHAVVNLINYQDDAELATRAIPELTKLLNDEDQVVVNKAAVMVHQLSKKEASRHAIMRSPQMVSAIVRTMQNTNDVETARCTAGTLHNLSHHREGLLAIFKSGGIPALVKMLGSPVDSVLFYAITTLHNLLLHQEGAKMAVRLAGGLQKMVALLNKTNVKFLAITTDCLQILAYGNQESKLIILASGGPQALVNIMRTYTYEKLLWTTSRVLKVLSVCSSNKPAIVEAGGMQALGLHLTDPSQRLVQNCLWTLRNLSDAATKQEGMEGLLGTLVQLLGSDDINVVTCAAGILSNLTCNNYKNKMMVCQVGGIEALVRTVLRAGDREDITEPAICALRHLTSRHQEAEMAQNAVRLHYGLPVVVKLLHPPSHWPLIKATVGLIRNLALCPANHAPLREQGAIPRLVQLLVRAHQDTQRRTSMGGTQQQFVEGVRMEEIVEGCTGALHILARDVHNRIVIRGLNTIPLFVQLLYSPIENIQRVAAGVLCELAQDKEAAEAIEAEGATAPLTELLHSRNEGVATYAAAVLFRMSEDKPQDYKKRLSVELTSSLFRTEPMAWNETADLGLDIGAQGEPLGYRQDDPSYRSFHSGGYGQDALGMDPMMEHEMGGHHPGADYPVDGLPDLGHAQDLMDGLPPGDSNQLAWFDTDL
As to the kind of experiment: KD50 measurement using competitive fluorescence polarization (FP) with labelled TCF4. In kind it is binding. Particulars: fluorescence polarization, β-catenin; for Kd: read-out: β-Cat FP KD. The procedure, abridged:
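Tracer: labelled TCF4, 5 nM; protein 100 nM; RT incubation. Competitor dilution series 10 nM–30 uM. FP read ex 470 / em 520 nm. n = 3.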
(In general: Polarisation of emitted light reports the rotation of a fluorescent probe.)

Molecules are shown by their SMILES. Where a SMILES comes first, the peptide text is derived from it.

For the compound `CC[C@H](C)[C@H](NC(=O)[C@H](CC(C)C)NC(=O)[C@@H](NC(=O)[C@H](Cc1c[nH]c2ccccc12)NC(=O)[C@@H](N)Cc1c[nH]c2ccccc12)[C@@H](C)CC)C(=O)N[C@@H](CO)C(=O)N[C@@H](Cc1ccccc1)C(=O)N[C@@H](Cc1c[nH]c2ccccc12)C(=O)NCC(=O)O` [compound 127] (H-WWILISFWG-OH), in series [1], the viability amounted to 120%. For the same compound, in series [2], the EC50 lay in the range of 7.5 to 15 µM. For the same compound, in series [3], the “β-Cat FP Hill slope” value is on record as 1 and the Kd is 400 to 1000 nM.

For `CC[C@H](C)[C@H](NC(=O)[C@H](Cc1c[nH]c2ccccc12)NC(=O)[C@@H](N)CCSC)C(=O)N[C@@H](CC(C)C)C(=O)N[C@H](C(=O)N[C@@H](CO)C(=O)NC(C)(Cc1ccccc1)C(=O)N[C@@H](Cc1c[nH]c2ccccc12)C(=O)NCC(=O)O)[C@@H](C)CC` (stereo partly shown) [compound 128] (HELM PEPTIDE1{M.W.I.L.I.S.[CC(Cc1ccccc1)(N[*:1])C(=O)[*:2]].W.G}$$$$V2.0), in series [1], the viability amounted to 132%. For the same compound, the half-maximal effective concentration (EC50) in series [2] lay in the range of 7.5 to 15 µM. For the same compound, in series [3], the “β-Cat FP Hill slope” value is listed as 2.15 and the Kd fell in the range of 400 to 1000 nM.

For the compound `CC[C@H](C)[C@H](NC(=O)[C@H](CC(C)C)NC(=O)[C@@H](NC(=O)[C@H](Cc1c[nH]c2ccccc12)NC(=O)[C@@H](N)CCSC)[C@@H](C)CC)C(=O)N[C@@H](CO)C(=O)N[C@@H](CO)C(=O)N[C@@H](Cc1c[nH]c2ccccc12)C(=O)NCC(=O)O` [compound 129] (H-MWILISSWG-OH), in series [1], the viability came out at 134%. For the same compound, in series [2], the EC50 was < 7.5 µM. Also, in series [3], the “β-Cat FP Hill slope” value came to 0.87 and the Kd lay within 400 to 1000 nM.

Take `CC[C@H](C)[C@H](NC(=O)[C@H](Cc1c[nH]c2ccccc12)NC(=O)[C@@H](N)CCSC)C(=O)NC(C)(CC(C)C)C(=O)N[C@H](C(=O)N[C@@H](CS)C(=O)N[C@@H](Cc1ccccc1)C(=O)N[C@@H](Cc1c[nH]c2ccccc12)C(=O)NCC(=O)O)[C@@H](C)CC` (stereo partly shown) [compound 130] (HELM PEPTIDE1{M.W.I.[CC(C)CC(C)(N[*:1])C(=O)[*:2]].I.C.F.W.G}$$$$V2.0): the viability in series [1] was found to be 98.3%. In series [2], this compound showed an EC50 of 22.5 to 30 µM. In addition, in series [3], the “β-Cat FP Hill slope” value amounted to 0.72 and the Kd fell in the range of 1000 to 10000 nM.

`CC[C@H](C)[C@H](NC(=O)[C@H](CC(C)C)NC(=O)C(C)(Cc1ccccc1)NC(=O)[C@H](Cc1c[nH]c2ccccc12)NC(=O)[C@@H](N)CCSC)C(=O)N[C@@H](CS)C(=O)N[C@@H](Cc1ccccc1)C(=O)N[C@@H](Cc1c[nH]c2ccccc12)C(=O)NCC(=O)O` (stereo partly shown) [compound 131] (HELM PEPTIDE1{M.W.[CC(Cc1ccccc1)(N[*:1])C(=O)[*:2]].L.I.C.F.W.G}$$$$V2.0): the viability in series [1] is 93.1%. The concentration for a half-maximal effect (EC50) in series [2] lay in the range of 7.5 to 15 µM. In series [3], the “β-Cat FP Hill slope” value turned out to be 1.27 and the Kd is < 400 nM.

Consider `CC[C@H](C)[C@H](NC(=O)[C@H](CC(C)C)NC(=O)[C@@H](NC(=O)C(C)(Cc1c[nH]c2ccccc12)NC(=O)[C@@H](N)CCSC)[C@@H](C)CC)C(=O)N[C@@H](CS)C(=O)N[C@@H](Cc1ccccc1)C(=O)N[C@@H](Cc1c[nH]c2ccccc12)C(=O)NCC(=O)O` (stereo partly shown) [compound 132] (HELM PEPTIDE1{M.[CC(Cc1c[nH]c2ccccc12)(N[*:1])C(=O)[*:2]].I.L.I.C.F.W.G}$$$$V2.0), for which the viability in series [1] came out at 102%. The compound also showed an EC50 in series [2] of 7.5 to 15 µM. Besides, in series [3], the “β-Cat FP Hill slope” value is 0.7 and the Kd is < 400 nM.

On to `CC[C@H](C)[C@H](NC(=O)[C@H](CC(C)C)NC(=O)C(C)(Cc1ccccc1)NC(=O)[C@H](Cc1c[nH]c2ccccc12)NC(=O)[C@@H](N)CCSC)C(=O)N[C@@H](CO)C(=O)N[C@@H](Cc1ccccc1)C(=O)N[C@@H](Cc1c[nH]c2ccccc12)C(=O)NCC(=O)O` (stereo partly shown) [compound 133] (HELM PEPTIDE1{M.W.[CC(Cc1ccccc1)(N[*:1])C(=O)[*:2]].L.I.S.F.W.G}$$$$V2.0), for which the viability in series [1] was found to be 95.4%. Moreover, the concentration giving a half-maximal response (EC50) in series [2] is > 30 µM. In series [3], the “β-Cat FP Hill slope” value turned out to be 3 and the Kd is < 400 nM.

For `CC[C@H](C)[C@H](NC(=O)[C@H](CC(C)C)NC(=O)[C@@H](NC(=O)C(C)(Cc1c[nH]c2ccccc12)NC(=O)[C@@H](N)CCSC)[C@@H](C)CC)C(=O)N[C@@H](CO)C(=O)N[C@@H](Cc1ccccc1)C(=O)N[C@@H](Cc1c[nH]c2ccccc12)C(=O)NCC(=O)O` (stereo partly shown) [compound 134] (HELM PEPTIDE1{M.[CC(Cc1c[nH]c2ccccc12)(N[*:1])C(=O)[*:2]].I.L.I.S.F.W.G}$$$$V2.0), the viability in series [1] came to 97.9%. The EC50 in series [2] is > 30 µM. In series [3], the “β-Cat FP Hill slope” value was determined as 1.47 and the Kd lay in the range of 1000 to 10000 nM.

`CC[C@H](C)[C@H](NC(=O)[C@H](CC(C)C)NC(=O)[C@H](Cc1ccccc1)NC(=O)[C@H](Cc1c[nH]c2ccccc12)NC(=O)[C@@H](N)CCSC)C(=O)N[C@@H](CS)C(=O)N[C@@H](Cc1cncn1C)C(=O)N[C@@H](Cc1c[nH]c2ccccc12)C(=O)NCC(=O)O` [compound 135] (HELM PEPTIDE1{M.W.F.L.I.C.[Cn1cncc1C[C@H](N[*:1])C(=O)[*:2]].W.G}$$$$V2.0): the viability in series [1] was found to be 107%. This compound also came in with an EC50 in series [2] of 7.5 to 15 µM. In addition, the “β-Cat FP Hill slope” value in series [3] was found to be 0.7.

On to `CC[C@H](C)[C@H](NC(=O)[C@H](Cc1c[nH]c2ccccc12)NC(=O)[C@@H](N)CCSC)C(=O)N[C@@H](CC(C)C)C(=O)N[C@H](C(=O)NC(C)(CO)C(=O)N[C@@H](Cc1ccccc1)C(=O)N[C@@H](Cc1c[nH]c2ccccc12)C(=O)NCC(=O)O)[C@@H](C)CC` (stereo partly shown) [compound 136] (HELM PEPTIDE1{M.W.I.L.I.[CC(CO)(N[*:1])C(=O)[*:2]].F.W.G}$$$$V2.0), for which the viability in series [1] was found to be 106%. In series [2], the EC50 was > 30 µM. In series [3], the “β-Cat FP Hill slope” value came out at 0.9 and the Kd lay within 400 to 1000 nM.

For `CC[C@H](C)[C@H](NC(=O)[C@H](Cc1c[nH]c2ccccc12)NC(=O)[C@@H](N)CCSC)C(=O)N[C@@H](CC(C)C)C(=O)N[C@H](C(=O)N[C@@H](C(=O)N[C@@H](Cc1ccccc1)C(=O)N[C@@H](Cc1c[nH]c2ccccc12)C(=O)NCC(=O)O)[C@H](C)O)[C@@H](C)CC` [compound 137] (HELM PEPTIDE1{M.W.I.L.I.[dT].F.W.G}$$$$V2.0), the viability in series [1] amounted to 93.9%. Also, the EC50 in series [2] is 15 to 22.5 µM. In addition, in series [3], the “β-Cat FP Hill slope” value was 0.81 and the Kd is 400 to 1000 nM.

As for `CC[C@H](C)[C@H](NC(=O)[C@H](Cc1c[nH]c2ccccc12)NC(=O)[C@@H](N)CCSC)C(=O)NC(C)(CC(C)C)C(=O)N[C@H](C(=O)N[C@@H](CO)C(=O)N[C@@H](Cc1ccccc1)C(=O)N[C@@H](Cc1c[nH]c2ccccc12)C(=O)NCC(=O)O)[C@@H](C)CC` (stereo partly shown) [compound 138] (HELM PEPTIDE1{M.W.I.[CC(C)CC(C)(N[*:1])C(=O)[*:2]].I.S.F.W.G}$$$$V2.0), the viability in series [1] was determined as 106%. Further, the EC50 in series [2] was > 30 µM. In addition, the Kd in series [3] was > 30000 nM.

Consider `CCCCCC[C@H](N)C(=O)N[C@@H](Cc1c[nH]c2ccccc12)C(=O)N[C@@H](Cc1ccccc1)C(=O)N[C@@H](CC(C)C)C(=O)N[C@H](C(=O)N[C@@H](CS)C(=O)N[C@@H](Cc1ccccc1)C(=O)N[C@@H](Cc1c[nH]c2ccccc12)C(=O)NCC(=O)O)[C@@H](C)CC` [compound 139] (HELM PEPTIDE1{[CCCCCC[C@H](N)C(=O)[*:2]].W.F.L.I.C.F.W.G}$$$$V2.0), for which the viability in series [1] came to 99.5%. The EC50 in series [2] was > 30 µM. For the same compound, in series [3], the equilibrium dissociation constant (Kd) was > 30000 nM.

Turning to `CC[C@H](C)[C@H](NC(=O)[C@H](CC(C)C)NC(=O)[C@H](Cc1ccccc1)NC(=O)[C@H](Cc1c[nH]c2ccccc12)NC(=O)[C@@H](N)CCSC)C(=O)N[C@@H](CS)C(=O)N[C@@H](Cc1cn(C)cn1)C(=O)N[C@@H](Cc1c[nH]c2ccccc12)C(=O)NCC(=O)O` [compound 140] (HELM PEPTIDE1{M.W.F.L.I.C.[Cn1cnc(C[C@H](N[*:1])C(=O)[*:2])c1].W.G}$$$$V2.0), the viability in series [1] was 102%. In series [2], this compound showed an EC50 of 15 to 22.5 µM. For the same compound, the “β-Cat FP Hill slope” value in series [3] is given as 0.7.

With `CCC[C@H](N)C(=O)N[C@@H](Cc1c[nH]c2ccccc12)C(=O)N[C@@H](Cc1ccccc1)C(=O)N[C@@H](CC(C)C)C(=O)N[C@H](C(=O)N[C@@H](CS)C(=O)N[C@@H](Cc1ccccc1)C(=O)N[C@@H](Cc1c[nH]c2ccccc12)C(=O)NCC(=O)O)[C@@H](C)CC` [compound 141] (HELM PEPTIDE1{[Nva].W.F.L.I.C.F.W.G}$$$$V2.0), in series [1], the viability came out at 100%. Moreover, in series [2], the half-maximal effective concentration (EC50) fell in the range of 7.5 to 15 µM. For the same compound, the Kd in series [3] was > 30000 nM.

A word on the viability: it is a read-out of living cells in per cent, often relative to untreated cells. As a reminder, the EC50 is the concentration that produces a half-maximal response. A word on the Kd: it is the free concentration of one partner at which half of the binding sites on the other are occupied at equilibrium, for simple one-to-one binding.

Values taken from patent publication US12441768B2, “Compositions and methods for treating endometriosis” (EndoMet Biosciences, Inc., priority 2018, dated 2025).
